Source: patent publication EP0284686A1, “Condensed triazoles, their preparation and their use as medicines” (BEECHAM GROUP PLC, priority 1986, dated 1988)

Tests used:
RBL-1 5-lipoxygenase = molecular target: T1, RBL-1 5-lipoxygenase (Rattus norvegicus, UniProt P12527); test: RBL-1 5-lipoxygenase screen; type: biochemical; conditions: 10,000g supernatant from RBL-1 cells, formation of 5-HETE and 5,12-diHETE from [1-14C] arachidonic acid, read-out: Percentage inhibition of RBL-1 5-lipoxygenase at 20µM
T1 construct: 5-Lipoxygenase enzyme was prepared as a 10,000g supernatant from RBL-1 cells; endogenous in cells; host or cells: RBL-1 cells (10,000g supernatant of homogenate)
T1 sequence (P12527 1-673): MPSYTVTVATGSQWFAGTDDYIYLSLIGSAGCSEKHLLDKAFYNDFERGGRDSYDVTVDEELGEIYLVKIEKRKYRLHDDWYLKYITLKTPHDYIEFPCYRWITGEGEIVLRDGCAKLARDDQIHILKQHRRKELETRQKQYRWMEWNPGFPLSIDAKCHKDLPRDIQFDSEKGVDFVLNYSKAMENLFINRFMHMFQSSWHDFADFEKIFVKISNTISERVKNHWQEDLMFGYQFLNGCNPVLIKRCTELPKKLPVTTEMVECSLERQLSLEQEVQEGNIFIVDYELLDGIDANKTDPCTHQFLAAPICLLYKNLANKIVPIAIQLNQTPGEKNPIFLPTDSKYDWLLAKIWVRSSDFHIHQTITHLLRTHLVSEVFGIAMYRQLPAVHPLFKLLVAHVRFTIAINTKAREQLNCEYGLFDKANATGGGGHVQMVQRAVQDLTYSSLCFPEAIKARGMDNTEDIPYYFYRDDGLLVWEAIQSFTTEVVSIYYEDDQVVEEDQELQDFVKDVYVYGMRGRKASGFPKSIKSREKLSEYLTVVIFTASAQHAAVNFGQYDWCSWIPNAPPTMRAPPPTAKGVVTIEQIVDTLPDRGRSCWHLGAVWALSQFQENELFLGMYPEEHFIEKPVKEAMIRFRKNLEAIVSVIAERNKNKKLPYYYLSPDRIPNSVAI
Procedure: 5-Lipoxygenase enzyme was prepared as a 10,000g supernatant from RBL-1 cells by the method of Jakschik (Jakschik, B.A., F.F. Sun, L.M.Lee, and M.M. Steinhoff, 1980, Biochem. Biophys. Res.Comm. 95 103). The 10,000g supernatant was diluted with homogenization buffer to the equivalent of 1.5 - 2.5 × 10⁷ cells. ml.⁻¹ and made 2mM with respect to CaCl₂. Aliquots of 0.5ml were then dispensed into tubes, and incubated at 29°C with 5µl ethanol or compound in ethanol at the desired concentration for 2min. Then [1-¹⁴C] arachidonic acid was added in buffer to give a final concentration of 6.3µM and 0.2µCi per incubation, and the reaction continued at 29°C for 2min. The reaction was terminated by adding 1ml of acetone and cooling on ice, 0.5ml of ice-cold saline and 100µl of 2N formic acid were added, and the mixture was extracted with 2 × 2ml of chloroform. The extract was stored under N₂ at -20°C until analysis by chromatography. Activity was measured as the percentage of total radioactivity found in 5-HETE and 5,12-diHETE, and inhibition calculated as the decrease in formation of the sum of these two species in compound-treated incubates relative to control incubations.

[1] = tested on: passive peritoneal anaphylaxis; test: Rat passive peritoneal anaphylaxis (PPA); type: in vivo; conditions: i.p., final concentration 2×10⁻⁴M, contact time 2½ minutes
Procedure: The method is essentially similar to that described previously by Ross et al (Ross, Janet W., Smith, H. and Spicer, Barbara A. Increased vascular permeability during passive peritoneal anaphylaxis in the rat. Int. Arch. Allergy appl. Immun. 51, 226, 1976.)
Charles River Sprague Dawley male rats of 225-275 g and Dunkin Hartley male white guinea pigs of 250-300 g were used.
Charles River Sprague Dawley male rats of 225 - 275 g were given intraperitoneal injections of 0.5 ml of either Bordetella pertussis vaccine (4 × 10¹⁰ organisms/ml; Burroughs Wellcome, London) or Pertussis vaccine absorbed (not less than 41.u. B. pertussis antigen with aluminium hydroxide; The Lister Institute Elstree, England), and subcutaneous injections of 0.5ml of an emulsion of 100 mg of ovalbumin (chicken egg albumin; crystallised and lyophilised, grade V, Sigma, London) in 2ml of isotonic saline and 3ml of incomplete Freund's adjuvant. The rats were bled by cardiac puncture on day 18, the blood was pooled and the serum separated, stored at -20°C and thawed only once before use. The serum produced 72 hour passive cutaneous anaphylaxis activity in recipient rats to a dilution of 1:64 to 1:32 which was decreased to a dilution of less than 1:2 by heating at 56°C for 4 hours.
Rats were given intraperitoneal injections of 2 ml of a 1:5 dilution of the rat anti-serum in isotonic saline. Two hours later 0.3ml of 5% solution of Pontamine Sky Blue (Raymond A. Lamb, London) in isotonic saline was injected intraveneously, followed by an intraperitoneal injection of the test compound in 1 ml of saline; (control rats received 1 ml of saline); followed 2.5 minutes later by an intraperitoneal injection of 5 ml of a Tyrode solution containing 50µg/ml heparin and 0.4 mg/ml of ovalbumin. The concentrations of the compounds were quoted as that in the 6 ml of fluid injected intraperitoneally. […]
The optical densities (OD) of the supernatants which were not contaminated with blood were determined immediately at 625nm. […]

| SMILES | inhibition at 20 µM (RBL-1 5-lipoxygenase) [%] | Percentage inhibition SRS-A ([1]; SRS-A in peritoneal fluid assayed on guinea pig ileum) | Percentage inhibition Dye ([1]; dye in peritoneal fluid (OD 625nm)) | Percentage inhibition Histamine ([1]; histamine in peritoneal fluid) |
| --- | --- | --- | --- | --- |
| Cc1ccc(O)c2c1nnn2Cc1ccccc1 [Example 1, 3-Benzyl-4-hydroxy-7-methylbenzotriazole] | 89 | – | – | – |
| Cc1ccc(O)c2nn(Cc3ccccc3)nc12 [Example 2, 2-Benzyl-4-hydroxy-7-methylbenzotriazole] | 81 | 49 | 30 | 45 |
